Laboratory results: patent US7666994B2, “Cloning and expression of gonadotropin-releasing hormone (GnRH) receptors” (University of New Hampshire, priority 2004, dated 2010)
Ends that are not written are not given here.

Experiments:
lamprey GnRH receptor [1] = experiment: Inositol phosphate (IP) assay in COS7 cells transiently transfected with the lamprey GnRH receptor; assay type: cell-based, sea lamprey, Petromyzon marinus; settings: for IP response on stimulation of transiently transfected COS7 cells: in words; for LogEC50, IP accumulation: mean±SEM, n=3, COS7 cells transiently transfected with lamprey GnRH receptor, 10^-6M to 10-11 M, 1 hour at 37° C.; for IP accumulation in cells transfected with blank pcDNA3.1 vector: negative control cells without receptor, data not shown
Experimental: (§1) The coding region of the lamprey GnRH-R was inserted into the pcDNA3.1 HisTOPO mammalian expression vector (Carlsbad, Calif.) (INVITROGEN, Carlsbad, Calif.). COS7 cells were cultured in 10% fetal bovine serum (FBS) in Dulbeccos Modified Eagles Medium (DMEM) (INVITROGEN), and were maintained at 37° C. in 5% CO 2. The day before transfection, 5×10^5 cells were seeded in 60 mm culture plates. Transfection was performed using 5 μg of vector and 15 μL of Lipofectamine (INVITROGEN) in 2.4 mL total volume in Opti-MEM-I (Invitrogen) and an incubation time of 5 hours at 37° C. in 5% CO 2, after which, 2.5 mL of 20% FBS in DMEM was added and cultures were grown overnight.
(§2) Twenty-four hours after transfection (day 2), cells were trypsinized and 96-well plates were seeded with 5×10^4 cells/well, and cultures were grown overnight. Day 3, cells were stimulated with either control (ID buffer −1.0 mM 3-isobutyl-1-methylxanthine in DMEM) or varying concentrations (10^-10M to 10^-4M) of either lamprey GnRH-I or lamprey GnRH-III (in ID buffer). cAMP assays were performed using the BIOTRAK Enzymeimmunoassay system (AMERSHAM), per the manufacturers instructions. Treatments were performed in triplicate in three independent experiments, while cells transfected with blank vector were used as negative controls. Analyses were performed using GRAPHPAD (Prism, San Diego, Calif.). Inositol Phosphate Assay The inositol phosphate (IP) stimulation and extraction protocol used was adapted from previous studies. Briefly, 24 hours after transfection, cells were trypsinized, and seeded in 12-well plates at approximately 1.5×10^5 cells/well. At hour 72 cells were washed in PBS and incubated in 1 mL of 2% dialyzed fetal bovine serum and 2 μCi/mL myo […] inositol (AMERSHAM) in medium 199 (INVITROGEN). At hour 96 cells were washed 2 times with IP buffer (1×HBSS, 20 mM HEPES, 20 mM LiCL), and were pre-incubated in IP buffer for 15 minutes at 37° C., followed by stimulation with concentrations of lamprey GnRH-I or lamprey GnRH III, in IP buffer, ranging from 10^-6M to 10-11 M, for 1 hour at 37° C. with gentle shaking. The reactions were stopped with the addition of 0.2 mL of pre-chilled 20% perchloric acid, and the plates were placed on ice for 30 minutes. The wells were scraped and the extracts were transferred to sterile 1.5 mL tubes and neutralized with 5M KOH, followed by a 1 hour incubation at 4° C. Tubes were centrifuged at 5,000 rpm at 4° C. for 15 minutes, and 1.2 mL of supernatant was transferred to a new sterile 1.5 mL tube. IPs (IP, IP2 and IP3) were isolated by ion exchange chromatography using AGlX8-200 resin (Bio-Rad) in formate form. IPs were eluted with 1 M ammonium formate/0.1 M formic acid, samples were counted by liquid scintillation and data were analyzed using Prism (GRAPHPAD). Treatments were performed in triplicate in three independent experiments, and cells transfected with blank vector and non-transfected cells were used as negative controls.

lamprey GnRH receptor [2] = experiment: cAMP assay in COS7 cells transiently transfected with the lamprey GnRH receptor; assay type: cell-based, sea lamprey, Petromyzon marinus; settings: for cAMP response on stimulation of transiently transfected COS7 cells: in words; for LogEC50, cAMP accumulation: mean±SEM, n=3, COS7 cells transiently transfected with lamprey GnRH receptor, 10^-10M to 10^-4M; for cAMP accumulation in cells transfected with blank pcDNA3.1 vector: negative control cells without receptor, data not shown
Experimental: as §1, §2

[3] = system: lamprey GnRH receptor transcript; experiment: Transcriptional regulation of the GnRH receptor transcript by lamprey GnRH-III (RT-PCR, densitometry normalized to β-actin); assay type: in vivo, adult male lamprey
Experimental: Forty adult male lamprey's were injected intraperitoneally, twenty (20) with lamprey GnRH-III (200 μL of 0.45 μg/μL lamprey GnRH-III in 0.6% saline) and twenty (20) with control (200 μL of 0.6% saline). Ten (10) fish from each treatment group were sacrificed 24 hours after injection, and brains, pituitaries, kidneys, and testes were dissected and frozen in liquid nitrogen. Forty-eight hours after the first injection, the remaining animals were injected a second time with the same treatment they originally received. Twenty-four hours after the second injection, all remaining animals were sacrificed and tissues dissected and snap frozen. Total RNA was isolated from all tissues using Tri-Reagent (Molecular Research Center, Inc.), treated with RQ1 DNase (PROMEGA), and used as template for RT-PCR with the AccessQuick RT-PCR system (PROMEGA) using the same conditions as above, except 50 ng of template was used per reaction. Reactions were electrophoresed and visualized in 2% agarose gels. Parallel reactions were performed using primers to β-actin as a positive control. Receptor bands were normalized to β-actin and densitometry was performed using a Molecular Imager FX (BioRad, Hercules, Calif.) to determine effects of lamprey […] injection.

[4] = system: incubated hemipituitaries of male rats; settings: cited from earlier work
[5] = relative to lamprey GnRH-I, one statement for both signaling systems
[6] = after both one and two injections, densitometry normalized to β-actin, N=10

lamprey GnRH receptor, sequence (as listed by the source): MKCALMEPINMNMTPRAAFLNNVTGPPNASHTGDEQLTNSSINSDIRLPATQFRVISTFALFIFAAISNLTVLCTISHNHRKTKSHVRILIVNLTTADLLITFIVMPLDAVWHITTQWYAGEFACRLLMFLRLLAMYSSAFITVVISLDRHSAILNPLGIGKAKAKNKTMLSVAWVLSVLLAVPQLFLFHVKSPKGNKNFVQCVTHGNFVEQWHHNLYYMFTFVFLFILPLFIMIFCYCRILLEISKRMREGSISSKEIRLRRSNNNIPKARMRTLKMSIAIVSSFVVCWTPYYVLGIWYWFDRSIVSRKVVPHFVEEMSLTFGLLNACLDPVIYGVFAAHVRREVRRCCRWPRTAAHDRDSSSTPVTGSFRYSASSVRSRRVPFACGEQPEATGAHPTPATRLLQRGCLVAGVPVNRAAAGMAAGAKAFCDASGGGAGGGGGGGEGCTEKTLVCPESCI

Substance | IP response on stimulation of transiently transfected COS7 cells (lamprey GnRH receptor [1]) | LogEC50, IP accumulation (lamprey GnRH receptor [1]) | IP accumulation in cells transfected with blank pcDNA3.1 vector (lamprey GnRH receptor [1]) | logEC50 fold lower than that of lamprey GnRH-I, IP system (lamprey GnRH receptor [1]; [5]) | cAMP response on stimulation of transiently transfected COS7 cells (lamprey GnRH receptor [2]) | LogEC50, cAMP accumulation (lamprey GnRH receptor [2]) | cAMP accumulation in cells transfected with blank pcDNA3.1 vector (lamprey GnRH receptor [2]) | logEC50 fold lower than that of lamprey GnRH-I, cAMP system (lamprey GnRH receptor [2]; [5]) | receptor transcript regulation in pituitary compared to control [3, 6] | receptor transcript regulation in testes compared to control [3, 6] | receptor transcript bands in pituitary versus control ([3]; after one injection, intraperitoneal, 24 hours after injection) | GnRH receptor transcript level in testes versus control ([3]; after one injection, intraperitoneal, 24 hours after injection, control testes high levels) | receptor transcript expression in brain ([3]; after one or two injections) | effects on receptor transcript in pituitary and testes after two injections, relative to one injection ([3]; two injections 48 hours apart, 24 hours after second injection) | FSH-releasing action [4] | LH-releasing action [4]
lamprey GnRH-III: hypothalamic lamprey GnRH isoform (decapeptide), Tyr instead of Trp in the third position | dose dependant responses | −9.37±0.243 | no response | 40-50 fold | dose dependant responses | −8.29±0.090 | no response | 40-50 fold | up-regulated | down-regulated | twice as bright as control | barely detectable levels | not induced | considerably lesser degree | potent, dose-related | 
lamprey GnRH-I: one of two hypothalamic GnRH isoforms (decapeptide) identified in the brain of the lamprey (QHYSLEWKPG; ends and bridges not checked) | dose dependant responses | −8.10±0.150 | no response |  | dose dependant responses | −6.57±0.150 | no response |  |  |  |  |  |  |  | little activity | little activity
